In patent publication US7262151B2, “Methods and compositions for production of lipo-chito oligosaccharides by rhizobacteria” (McGill University, priority 2001, dated 2007):
Read-outs that look alike come from different tables or passages of the source.

Columns and labels:
[1] = system: nod genes in Bradyrhizobium japonicum strain USDA31; assay: nod gene induction, β-galactosidase assay, strain USDA31 (GG1); format: cell-based
Procedure: (§1) Bacteria were grown in yeast extract mannitol (YEM) medium (mannitol 10.0 g, K2HPO4 0.5 g, MgSO4.7H2O 0.2 g, NaCl 0.1 g, and yeast extract 0.4 g dissolved in 1000 mL of dd H2O). In order to ensure the maintenance of the strains, tetracycline was added to the bacterial cultures at a concentration of 20 mg 1^−1. One hundred mL cultures of each strain, in 250 mL flasks, were shaken at 150 rev min^−1 at 30° C. for 3-5 days and then subcultured into 400 mL of fresh medium in 1000 mL flasks. The cultures were incubated until the OD620 reached 0.2-0.3. The cultures were then divided into 5 mL tubes (sterilized).
(§2) Stock solutions of various inducers: genistein, salicylic acid and acetylsalicylic acid made in methanol and linolenic, linoleic, and jasmonic acid and methyl jasmonate were made in ethanol, and an appropriate amount of these inducers was added into the tubes before addition of bacterial culture. In the tubes, the final concentration of all the inducers was maintained as 5, 10, 25, 50 and 100 μM. Tubes were collected after 18 h of incubation and stored at −20° C. until the β-galactosidase activity was measured. Genistein (4′,5,7, trihydroxyisoflavone, purity 98%,), linolenic acid (9,12,15-Octadecatrienoic acid, purity 99%), linoleic acid (cis-9, cis-12-Octadecadienoic acid, purity 99%), jasmonic acid (±Jasmonic acid, C12H18O3) and salicylic acid (2-hydroxybenzoic acid, purity 99.0%) were obtained from Sigma, while acetylsalicylic acid (C9H8O4, 99% purity) was obtained from Acros and methyl jasmonate (95% purity) was obtained from Aldrich Chemical Company, Inc.
(§3) β-galactosidase is an enzyme which hydrolyzes β-D-galactosides. The activity of this enzyme can easily be measured with colorless substrates, which upon hydrolysis produce colored products. O-nitrophenyl-β-galactoside (ONPG) is a colorless compound and is converted to galactose and O-nitrophenol in the presence of β-galactosidase. The O-nitrophenol is yellow and can be measured by its absorption at 420 nm. In the present study, nod gene expression was indirectly measured by β-galactosidase activity following the method of Miller (1972) as modified by Stachel et al, (1985). Briefly, 0.5 mL culture was mixed with 2×Z buffer (Na2HPO4.7H2O, 16.1 g, NaH2PO4.H2O, 5.5 g, KCl 0.75 g, MgSO4.7H2O 0.246 g, β-mercaptoethanol 2.7 g, pH 7.0 dissolved in 500 mL water) and 40 μL toluene and vortexed for 10 seconds. The culture was then incubated in a water bath at 37° C. for 30 minutes and then 0.2 mL of O-nitrophenyl β-D-galactopyranoside (ONPG) was added at a concentration of 4 mg mL^−1. The cultures were incubated again in the water bath until the color of the culture changed. The reaction time was recorded and the reaction was stopped with 1M Na2CO3. After centrifugation at 10,000 rpm for 4 minutes, spectrophotometric reading at OD420 and OD600 were taken and the β-galactosidase activity was measured (β-galactosidase activity=OD420*1000/OD600*T*V, where T is the reaction time and V is the volume of the bacterial culture used for enzyme assay).
(§4) The effect of 0-100 μM concentrations of each of acetylsalicylic acid, salicylic acid, jasmonic acid, methyl jasmonate, and genistein, on induction of nod gene expression in Bradyrhizobium japonicum strains USDA31, USDA76, USDA121, and USDA3, was evaluated in accordance with the β-galactosidase assay of Experiment 1 in Example 1 above.

[2] = system: nod genes in Bradyrhizobium japonicum strain USDA121; assay: nod gene induction, β-galactosidase assay, strain USDA121 (GG3); format: cell-based; details: control 476.8 ± 86.6
Procedure: as §1, §2, §3, §4

[3] = system: nod genes in Bradyrhizobium japonicum strain USDA76; assay: nod gene induction, β-galactosidase assay, strain USDA 76 (GG2); format: cell-based; details: control 411.8 ± 26.8
Procedure: as §1, §2, §3, §4

[4] = system: nod genes in Bradyrhizobium japonicum strain USDA3; format: cell-based; details: for nod gene induction (β-galactosidase activity): USDA3 (GG4), control 362 ± 25; for expression of nod genes (β-galactosidase assay), in words: FIG. 1; for synergistic effect on β-galactosidase activity: simultaneous addition with genistein (5 μM), FIG. 2
Procedure: Bradyrhizobium japonicum strain USDA3, harboring plasmid GG4, was used in the experiment. Plasmid GG4 contains a translational fusion between B. japonicum nod Y open-reading frame and lac Z of Escherichia coli.
as §1, §2, §3
The experiment was designed in a randomized complete block design (RCBD) with three replicates. […] Data are shown from the second experiment. Statistical analysis of the data was done with analysis of variance using the Statistical Analysis System computer package (SAS Institute, 1988). Comparisons among treatment means were made with an ANOVA protected LSD at the 0.05 level of statistical significance.

[5] = system: Rhizobium leguminasorum strain RBL 1284; details: Rosas et al (1998); cited from earlier work
[6] = 5 μM, control without inducer 522.6 ± 15.9
[7] = concentrations from 25 to 100 μM

Structure (SMILES)	nod gene induction (β-galactosidase activity) [1, 6]	nod gene induction (β-galactosidase activity) ([1]; 10 μM, control 522.6 ± 15.9)	nod gene induction (β-galactosidase activity) ([1]; 25 μM, control 522.6 ± 15.9)	nod gene induction (β-galactosidase activity) ([1]; 50 μM, control 522.6 ± 15.9)	nod gene induction (β-galactosidase activity) ([1]; 100 μM, control 522.6 ± 15.9)	nod gene induction (β-galactosidase activity) ([2]; 5 μM)	nod gene induction (β-galactosidase activity) ([2]; 10 μM)	nod gene induction (β-galactosidase activity) ([2]; 25 μM)	nod gene induction (β-galactosidase activity) ([2]; 50 μM)	nod gene induction (β-galactosidase activity) ([2]; 100 μM)	nod gene induction (β-galactosidase activity) ([3]; 5 μM)	nod gene induction (β-galactosidase activity) ([3]; 10 μM)	nod gene induction (β-galactosidase activity) ([3]; 25 μM)	nod gene induction (β-galactosidase activity) ([3]; 50 μM)	nod gene induction (β-galactosidase activity) ([3]; 100 μM)	nod gene induction (β-galactosidase activity) ([4]; 5 μM)	nod gene induction (β-galactosidase activity) ([4]; 10 μM)	nod gene induction (β-galactosidase activity) ([4]; 25 μM)	nod gene induction (β-galactosidase activity) ([4]; 50 μM)	nod gene induction (β-galactosidase activity) ([4]; 100 μM)	other results
O=c1c(-c2ccc(O)cc2)coc2cc(O)cc(O)c12 [GEN, 5,7,4′-trihydroxyisoflavone]	2283.8 ± 57.7	2007.6 ± 36.7	1821 ± 89.2	1121.1 ± 156.9	491.9 ± 31.6	2081.7 ± 148.5	1685.1 ± 53.3	1286.8 ± 145.5	1154.5 ± 121.1	430.9 ± 80.6	1421.7 ± 93.4	1320.8 ± 75.99	1383.8 ± 98.22	1160.7 ± 89.7	413.7 ± 7.4	3304 ± 333	2500 ± 94	2300 ± 219	1930 ± 74	406 ± 15	optimum concentration for nod gene induction ([4]; USDA3, β-galactosidase assay): 5 µM
CC/C=C\C[C@H]1C(=O)CC[C@@H]1CC(=O)O [JA, [1R-[1α,2β(Z)]]-3-oxo-2-(pentenyl)cyclopentaneacetic acid]	1653.3 ± 105.2	2079 ± 254.9	1853.3 ± 314.5	1884.3 ± 289.3	796 ± 67.3	540.3 ± 79.3	473.7 ± 58.3	496 ± 49.2	412.7 ± 22.9	329.5 ± 19.3	393.5 ± 30.5	447.9 ± 21	420.1 ± 4.6	375.1 ± 35.3	357.7 ± 9.7	368 ± 23	362 ± 9	3200 ± 230	3900 ± 150	550 ± 210	expression of nod genes, in words [5]: induced expression of nod genes; expression of nod genes (β-galactosidase assay), in words ([4]; concentrations 10 μM or less): showed no activity; expression of nod genes (β-galactosidase assay), in words [4, 7]: strongly induced the expression of nod genes; synergistic effect on β-galactosidase activity [4]: did not result in any synergistic effect
CC/C=C\CC1C(=O)CCC1CC(=O)OC (stereo not drawn) [MeJA, methyl jasmonate]	472.2 ± 14.8	485.3 ± 42.5	403.3 ± 5.6	500.1 ± 32	392.9 ± 22.7	518 ± 42.6	487.1 ± 33	427 ± 29.4	549.2 ± 81.6	487.9 ± 89.3	435.4 ± 39	418.4 ± 53.1	392.7 ± 2.1	410.4 ± 24.5	386.4 ± 37.3	448 ± 30	500 ± 61	3000 ± 350	4700 ± 450	4500 ± 400	expression of nod genes, in words [5]: induced expression of nod genes; expression of nod genes (β-galactosidase assay), in words ([4]; concentrations 10 μM or less): showed no activity; expression of nod genes (β-galactosidase assay), in words [4, 7]: strongly induced the expression of nod genes; synergistic effect on β-galactosidase activity [4]: did not result in any synergistic effect
